# Assay results as given in US12004538B2, “Method for improving meat quality” (CAN TECHNOLOGIES, INC., priority 2017, dated 2024).
# Like-named read-outs stand apart in the source and are kept apart here.
# Columns and labels:
# longissimus muscle = conditions: for L* day 2 / a* day 2 / b* day 2 / pH* day 2: 24 hours after slaughter; for L* day 1 / a* day 1 / b* day 1: day of slaughter
# Protocol: (§1) The trial was conducted in the grower-finisher unit 1 and 2 of Cargill Innovation Center Velddriel, The Netherlands. Pigs were allocated with 64 days of age. A randomized block design was used using 6 treatments divided over 48 pens by using 8 weight blocks in total. A pen was the experimental unit. Each pen contained 4 animals. Barrows and gilts were equally distributed among treatments. The experiment consisted of a 3×2 factorial design with three different levels of Bolifor™ CNFR (calcium nitrate) and with and without heat stress, with 8 replications per treatment (Table 1). During phase 1 (day 0 to day 24, i.e., d0-24) a common diet was fed. In phase 2 (d24-56) and phase 3 (d56-101) pigs were fed one of the 6 experimental diets (pellet form).
# At slaughter, meat samples were taken to measure meat color. Color was evaluated at the longissimus muscle for L* (lightness), a* (redness), and b* (yellowness) values using a Minolta spectrophotometer. The first measurement was taken 3 hours postmortem and the second measurement 24 hours after first measurement. At the time of the 2nd color measurement, pH was also measured.
# [1] = young piglets
# [2] = Protocol: as §1
# Feed intake and body weight were measured at day 0, 24, 39, 59, 83 and 101. Ultrasound measurements were made at day 24, 59 and 101. To get more insight on metabolic defenses when pigs are submitted to heat stress, urine samples were taken at experimental day 84 (105 kg average BW) in the morning from the control animals (16 animals) in the heat stress group and the non-heat stressed group to measure pH, and calcium and phosphorus content. The pH was measured right after collection. During the first three weeks of heat stress skin temperature was measured daily with an infrared device (Testo 845). From 3 weeks onwards, skin temperature was measured weekly.
# For comparison of the different treatments, the parameters ADG, ADFI and Feed conversion ratio (FRC) (all normally distributed) were subjected to Mixed Model analysis, using SAS JMP (Version 9.0, SAS Institute Inc., Cary, NC, 2008) according to the following statistical model: Yijk=μ+αi+βj+(αβ)ij+Sexk+δi1+BW24m+εijklm Where, • μ=population mean; • αi=main effect of temperature/room i (A), i=1, 2; • βj=main effect of calcium nitrate level j (B), j=1, 2, 3; • Sex1=random effect of sex, 1=barrow, gilt; • BW24m=BW at day 24 (covariable) • (αβ)ij is the interaction effect of A and B; for each j and for each i • δik˜Niid(0, s^2a) is the whole plot (block) error, k=1, 2, . . . , 8; • εijk˜Niid(0, s^2e) is the sub plot (pen) error, k=1, 2, . . . , 8. Linear and quadratic contrast for calcium nitrate level was tested. Differences between treatment means were assumed to be significant based on the probability of P<0.05 (Student t-test); unless other probability value is stated.
# [3] = for Carcass yield: HCW divided by live weight
# Protocol: as §1
# On day 83 of the trial one pig per pen was removed and transported to a commercial processing plant. On day 102, pigs were weighed and transported to a commercial processing plant (Compaxo, Zevenaar, The Netherlands). Each pig received an ear tag according to pen number to allow for data retrieval by pen and carcass data collection at the packing plant. Hot carcass weights (HCW) were measured immediately after evisceration and each carcass was evaluated for backfat, loin depth, and lean percentage. Fat depth and loin depth were measured with an optical probe inserted between 3rd and 4th last rib. Lean percentage was provided from the packing plant by using a proprietary equation. Percentage yield was calculated by dividing HCW by live weight obtained before transport to the packing plant.
# Temperature, humidity and ventilation were automatically controlled. During phase 1 (from experimental day 0 until 24) pigs were not submitted to heat stress conditions. From experimental day 32 onwards pigs in Unit 2 were exposed to heat stress conditions (total period length of 66 days). During this period of heat stress the temperature was raised to 30° C. (from 8 AM-6 PM) and decreased to 26° C. from 6 PM-8 AM. During the heat stress period the relative humidity was kept at 80% in Unit 2 and the minimum ventilation was adjusted according to the body weight of the pigs.
# [4] = cited from earlier work
# [5] = heat stress, nitrate 0.063% in diet
# [6] = heat stress, nitrate 0.1% in diet
# [7] = normal temperature, nitrate 0.063% in diet
# [8] = normal temperature, nitrate 0.1% in diet
# [9] = 0.063% nitrate inclusion in feed
# [10] = grower-finisher pigs, nitrate in the water
compound,measurement,setting,value
"O=[N+]([O-])[O-].O=[N+]([O-])[O-].[Ca+2] [Nitrate, calcium nitrate]",L* day 2,longissimus muscle; [5],55.5
same,a* day 2,longissimus muscle; [5],9.5
same,b* day 2,longissimus muscle; [5],−0.4
same,pH* day 2,longissimus muscle; [5],5.36
same,L* day 2,longissimus muscle; [6],55.1
same,a* day 2,longissimus muscle; [6],9.8
same,b* day 2,longissimus muscle; [6],−0.7
same,pH* day 2,longissimus muscle; [6],5.35
same,L* day 2,longissimus muscle; [7],53.5
same,a* day 2,longissimus muscle; [7],9.8
same,b* day 2,longissimus muscle; [7],−1.0
same,pH* day 2,longissimus muscle; [7],5.60
same,L* day 2,longissimus muscle; [8],53.7
same,a* day 2,longissimus muscle; [8],9.9
same,b* day 2,longissimus muscle; [8],−0.9
same,pH* day 2,longissimus muscle; [8],5.58
same,L* day 1,longissimus muscle; [5],43.1
same,a* day 1,longissimus muscle; [5],7.0
same,b* day 1,longissimus muscle; [5],−1.5
same,L* day 1,longissimus muscle; [6],42.5
same,a* day 1,longissimus muscle; [6],7.1
same,b* day 1,longissimus muscle; [6],−1.6
same,L* day 1,longissimus muscle; [7],42.5
same,a* day 1,longissimus muscle; [7],7.3
same,b* day 1,longissimus muscle; [7],−1.5
same,L* day 1,longissimus muscle; [8],43.0
same,a* day 1,longissimus muscle; [8],7.2
same,b* day 1,longissimus muscle; [8],−1.4
same,parameter a* at day 2 with increasing level of calcium nitrate in the diet,"longissimus muscle; main effect of nitrate level, P=0.012",linearly increased
same,"pH values in longissimus dorsi, main effect of nitrate","longissimus muscle; pig, in vivo",no significant effects
same,adverse effects on performance,"[1]; feed dose titration 0.2, 0.4, 0.6, 0.8 and 1.0% calcium nitrate",no adverse effects
same,met-hemoglobin,[1]; highest level of calcium nitrate inclusion,stayed well within levels considered as safe
same,effect of calcium nitrate level on weight,"[2]; day 83 and 101, P<0.05",quadratic effect
same,FCR,"[2]; overall period (24-101 days), nitrate level 1 (0.063%), heat stress conditions, tendency P=0.09",better FCR
same,FCR with increasing level of calcium nitrate in the diet,"[2]; phase 2 (d24-59) and whole trial (d24-101), P<0.05",linearly increased
same,effect of calcium nitrate level on ADG,"[2]; phase 3 (d59-101), P<0.10",tended to show a quadratic effect
same,effect of calcium nitrate level on ADFI,"[2]; phase 3 and whole trial, P<0.05",quadratic effect
same,effect of calcium nitrate level on ADG,"[2]; whole trial (d24-101), P<0.05",quadratic effect
same,"carcass yield, rank among treatments",[3]; [9],highest
same,"slaughter weight, rank among treatments",[3]; [9],lowest slaughter weight
same,effect of nitrate level on carcass yield,[3]; P<0.05,quadratic effect
same,effect of nitrate level on full weight,[3]; P<0.05,quadratic effect
same,effect of nitrate level on slaughter weight,[3]; P<0.05,quadratic effect
same,Backfat,[3]; [5],18.7 mm
same,Carcass weight,[3]; [5],100.2 kg
same,Lean meat,[3]; [5],56.1%
same,Muscle,[3]; [5],68.6 mm
same,Slaughter weight,[3]; [5],122.8 kg
same,Weight full,[3]; [5],125.0 kg
same,Carcass yield,[3]; [5],81.7%
same,Backfat,[3]; [6],18.9 mm
same,Carcass weight,[3]; [6],101.2 kg
same,Lean meat,[3]; [6],55.9%
same,Muscle,[3]; [6],68.5 mm
same,Slaughter weight,[3]; [6],124.9 kg
same,Weight full,[3]; [6],127.6 kg
same,Carcass yield,[3]; [6],81.2%
same,carcass weight compared to the other treatments,"[3]; normal temperature, 0.063%",higher carcass weight
same,Backfat,[3]; [7],20.3 mm
same,Carcass weight,[3]; [7],105.1 kg
same,Lean meat,[3]; [7],55.0%
same,Muscle,[3]; [7],67.8 mm
same,Slaughter weight,[3]; [7],126.0 kg
same,Weight full,[3]; [7],128.2 kg
same,Carcass yield,[3]; [7],83.6%
same,Backfat,[3]; [8],16.8 mm
same,Carcass weight,[3]; [8],99.5 kg
same,Lean meat,[3]; [8],57.4%
same,Muscle,[3]; [8],69.3 mm
same,Slaughter weight,[3]; [8],127.3 kg
same,Weight full,[3]; [8],129.6 kg
same,Carcass yield,[3]; [8],78.3%
same,effect on hemoglobin or met-hemoglobin in the blood,[4]; [10],no effect
same,"effect on meat and liver NO content and on meat color, smell or taste",[4]; [10],no effect
same,level of nitrate in swine feed that can be dosed safely,[4]; swine feed,≥ 0.1%
